Test results published in patent publication US6140362A, “Method for inhibiting the growth of mammalian cells” (Rohm and Haas Company, priority 1997, dated 2000).

Assays:
[1] = system: mouse lymphoma cell line L5178Y; test: Growth inhibition of mouse lymphoma cells (L5178Y), 48 h; assay type: cell-based; conditions: 48 hours; for inhibition at 20 µM: 20 micromolar; for inhibition at 50 µM: 50 micromolar; for inhibition at 2 µM: 2 micromolar; for inhibition at 4 µM: 4 micromolar; for inhibition at 10 µM: 10 micromolar, read-out: Inhibition of growth
Description: Effects of compounds on growth of mouse lymphoma cell line L5178Y, were determined as follows. Cells were grown in Fischer's medium (obtained from Life Technologies, Inc., Gaithersburg, Md.) containing 0.24 grams per liter (g/l) sodium pyruvate, 1.12 g/l surfactant (Pluronic F-68, from BASF Corporation, Parsippany, N.J.), and 10% by volume (10% v/v) heat-inactivated horse serum (obtained from Life Technologies, Inc) at 37° C. To 30 ml aliquots of cell suspension (2×10^4 cells per milliliter (mL)) in exponential growth phase were added test compounds dissolved in dimethylsulfoxide (DMSO) at various concentrations such that the final DMSO concentration in the mixtures was 0.25%. Tubes were gassed with 5% CO2 then incubated on a roller drum apparatus. After 48 hours the cells were treated with 0.1% trypsin (Life Technologies, Inc.,) for 10 minutes and counted in a Coulter Counter equipped with a 140 micrometer (μM) aperture. Percent inhibition of growth was calculated by comparing the number of cells in assays containing test compound with the number of cells in controls lacking the test compound.

tubulin = test: Inhibition of microtubule assembly; assay type: biochemical, calf; conditions: preincubated 1 h at 37° C.
Description: Compounds were evaluated for their ability to inhibit tubulin assembly into microtubules by comparing the extent of cold-reversible assembly in the presence of each test compound with controls lacking the test compound. Tubulin was isolated from calf brain tissue by two cycles of assembly/disassembly as described by Vallee, R. B. in Methods in Enzymology, vol. 134, pp. 89-104. Assay mixtures contained 1 mg/ml of purified tubulin in 1 M sodium glutamate, pH 6.6, 1 millimolar (mM) MgCl2, and the test compound, which was added as a solution in DMSO. The final concentration of DMSO in each assay was 2% (v/v). Assay mixtures were preincubated at 37° C. for 1 h, then chilled on ice for 5 min. Microtubule assembly was initiated by addition of guanosine triphosphate (0.1 mM), and incubation at 37° C. Assembly was followed turbidimetrically at 350 nm for 20 minutes (min) using a temperature-controlled cell in a Cary 2200 spectrophotometer. Since microtubules undergo depolymerization at 0° C., assembly was confirmed by measuring the reduction in turbidity following incubation for 30 min at 0° C. The difference in absorbance before and after incubation for 30 min at 0° C. (ΔA350) represents the extent of microtubule assembly. Inhibition of assembly was calculated by subtracting the (ΔA350) values for treatments with test compounds from the (ΔA350) for controls without test compound, and expressing this difference as a percentage of the (ΔA350) value for the control. Results including test compound number, test compound concentration in micromoles per liter (μM) and percent inhibition are set forth in Table 11.

CCC(C)(NC(=O)c1cc(F)cc(F)c1)C(=O)CCl (stereo not drawn) [Compound 34]
inhibition at 20 µM [1]: 88%

CCC(C)(NC(=O)c1cccc(Cl)c1)C(=O)CCl (stereo not drawn) [Compound 35]
inhibition at 20 µM [1]: 95% | Percent inhibition of microtubule assembly (tubulin; 50 μM): 17.9%

CCC(C)(NC(=O)c1ccccc1)C(=O)CCl (stereo not drawn) [Compound 36]
inhibition at 50 µM [1]: 91%

CCC(C)(NC(=O)c1cc(F)c(F)c(F)c1)C(=O)CCl (stereo not drawn) [Compound 37]
inhibition at 50 µM [1]: 96%

CC(C)C(C)(NC(=O)c1cc(Cl)cc(Cl)c1)C(=O)CCl (stereo not drawn) [Compound 38]
inhibition at 50 µM [1]: 66%

CC(C)(NC(=O)c1ccccc1)C(=O)CCl [Compound 39]
inhibition at 50 µM [1]: 96%

CC(C)(NC(=O)c1cc(Cl)cc(Cl)c1)C(=O)C(Cl)Cl [Compound 40]
inhibition at 50 µM [1]: 92%

CCC(C)(NC(=O)c1cc(Cl)cc(Br)c1)C(=O)C(Br)Br (stereo not drawn) [Compound 41]
Percent inhibition of microtubule assembly (tubulin; 5 μM): 76.0%

CC(C)(NC(=O)c1cc(Cl)nc(Cl)c1)C(=O)C(Br)Br [Compound 42]
inhibition at 2 µM [1]: 98%

CC(C)(NC(=O)c1cc(Cl)nc(Cl)c1)C(=O)CCl [Compound 43]
inhibition at 4 µM [1]: 92%

CCC(C)(NC(=O)c1cccnc1)C(=O)CCl (stereo not drawn) [Compound 45]
inhibition at 50 µM [1]: 36%

CCC(C)(NC(=O)c1ccc(Cl)nc1)C(=O)CCl (stereo not drawn) [Compound 46]
inhibition at 50 µM [1]: 84%

CC(C)(NC(=O)c1cc(Br)c(Br)s1)C(=O)CCl [Compound 47]
inhibition at 20 µM [1]: 96%

CCC(C)(NC(=O)c1ccc(C)s1)C(=O)CCl (stereo not drawn) [Compound 48]
inhibition at 50 µM [1]: 97%

CC(C)(NC(=O)c1cccs1)C(=O)C(Br)Br [Compound 49]
inhibition at 2 µM [1]: 97%

CCC(C)(NC(=O)c1ccc(Br)o1)C(=O)C(Br)Br (stereo not drawn) [Compound 50]
inhibition at 10 µM [1]: 95%

CC(C)(NC(=O)c1cccs1)C(=O)CCl [Compound 51]
inhibition at 50 µM [1]: 95%

CC(C)(NC(=O)c1cc(Cl)sc1Cl)C(=O)CCl [Compound 52]
inhibition at 20 µM [1]: 89%

CCC(C)(NC(=O)c1ccc2ncoc2c1)C(=O)CCl (stereo not drawn) [Compound 53]
inhibition at 50 µM [1]: 95%

CCC(C)(NC(=O)c1ccc2ocnc2c1)C(=O)CCl (stereo not drawn) [Compound 54]
inhibition at 50 µM [1]: 36%

CCC(C)(NC(=O)c1ccc2ncsc2c1)C(=O)CCl (stereo not drawn) [Compound 55]
inhibition at 10 µM [1]: 97%

CCC(C)(NC(=O)c1cc(Cl)c2ncoc2c1)C(=O)CCl (stereo not drawn) [Compound 56]
inhibition at 10 µM [1]: 81%

CCC(C)(NC(=O)c1cc(Cl)c2nc(C)oc2c1)C(=O)CCl (stereo not drawn) [Compound 57]
inhibition at 10 µM [1]: 97%

CC(C)(NC(=O)C1CCCCC1)C(=O)CCl [Compound 58]
inhibition at 50 µM [1]: 77%

CC(C)(NC(=O)C(Cl)(Cl)Cl)C(=O)CCl [Compound 59]
inhibition at 4 µM [1]: 91%

CC(C)(NC(=O)C(Cl)(Cl)Cl)C(=O)C(Br)Br [Compound 60]
inhibition at 2 µM [1]: 98%
